Data from the supplement of paper PMC11579375.

Legend:
Experiment in all cases: area under the viability dose-response curve (AUC) (AUC (arbitrary units, max 500 = no viability loss)); higher = less sensitive (higher viability)
Conditions in all cases: exposure time: 120 h; concentration range: 0.1 nM - 10 µM, 6 doses
10F2 = test system: 10F2 (fetal-II hepatoblastoma organoid with high liver markers)
Experimental: (§1)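 Patient-derived hepatoblastoma tumor organoids (about 50 organoids per well, 384-well plates, medium with 5% BME) were treated with the PMC pediatric cancer drug library. Each drug was tested in duplicate at 6 concentrations (0.1 nM to 10 µM, 10-fold steps).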

135F2 = test system: 135F2 (fetal-II hepatoblastoma organoid with high liver markers)
Experimental: as §1

13E = test system: 13E (embryonal-type hepatoblastoma organoid)
Experimental: as §1

13F2 = test system: 13F2 (fetal-II hepatoblastoma organoid with high liver markers)
Experimental: as §1

17E = test system: 17E (embryonal-type hepatoblastoma organoid)
Experimental: as §1

17F1 = test system: 17F1 (fetal-I hepatoblastoma organoid with intermediate liver markers)
Experimental: as §1

22E = test system: 22E (embryonal-type hepatoblastoma organoid)
Experimental: as §1

27F1 = test system: 27F1 (fetal-I hepatoblastoma organoid with intermediate liver markers)
Experimental: as §1

3E = test system: 3E (embryonal-type hepatoblastoma organoid)
Experimental: as §1

8F1 = test system: 8F1 (fetal-I hepatoblastoma organoid with intermediate liver markers)
Experimental: as §1

96F1 = test system: 96F1 (fetal-I hepatoblastoma organoid with intermediate liver markers)
Experimental: as §1

SMILES	area under the viability dose-response curve (10F2)	area under the viability dose-response curve (135F2)	area under the viability dose-response curve (13E)	area under the viability dose-response curve (13F2)	area under the viability dose-response curve (17E)	area under the viability dose-response curve (17F1)	area under the viability dose-response curve (22E)	area under the viability dose-response curve (27F1)	area under the viability dose-response curve (3E)	area under the viability dose-response curve (8F1)	area under the viability dose-response curve (96F1)
CC[C@@H]1C(=O)N(C)c2cnc(Nc3ccc(C(=O)N[C@H]4CC[C@H](N5CCN(CC6CC6)CC5)CC4)cc3OC)nc2N1C(C)C [Volasertib]	227	257	263	278	249	331	326	255	278	351	281
CN(C)/N=N/c1[nH]cnc1C(N)=O [Dacarbazine]	> 500	496	> 500	487	> 500	486	> 500	494	> 500	> 500	491
O=C(c1cc(Cc2n[nH]c(=O)c3ccccc23)ccc1F)N1CCN(C(=O)C2CC2)CC1 [Olaparib]	470	492	496	491	494	> 500	458	476	477	> 500	490
C[C@H](NC(=O)c1c(N)nn2cccnc12)c1cc2cccc(C#Cc3cnn(C)c3)c2c(=O)n1-c1ccccc1 [IPI549]	459	> 500	463	479	464	> 500	477	> 500	428	> 500	459
Nc1nc(=S)c2[nH]cnc2[nH]1 [6-Thioguanine]	462	390	437	381	432	457	448	443	484	476	412
CCn1cc(-c2cccc(C(F)(F)F)c2)c2sc(C(=N)NC3CCS(=O)(=O)CC3)cc2c1=O [I-BRD9]	> 500	471	470	435	461	490	493	> 500	376	459	478
CCCCCCCCCCCCCCCCCCOP(=O)([O-])OC1CC[N+](C)(C)CC1 [Perifosine]	470		> 500	480	499	> 500	> 500	> 500	> 500	482	
Cc1c2oc3c(C)ccc(C(=O)N[C@@H]4C(=O)N[C@H](C(C)C)C(=O)N5CCC[C@H]5C(=O)N(C)CC(=O)N(C)[C@@H](C(C)C)C(=O)O[C@@H]4C)c3nc-2c(C(=O)N[C@@H]2C(=O)N[C@H](C(C)C)C(=O)N3CCC[C@H]3C(=O)N(C)CC(=O)N(C)[C@@H](C(C)C)C(=O)O[C@@H]2C)c(N)c1=O [Actinomycin D]	160	127	205	114	150	187	215		134	222	169
CC1(C)CCC(CN2CCN(c3ccc(C(=O)NS(=O)(=O)c4ccc(NCC5CCOCC5)c([N+](=O)[O-])c4)c(Oc4cnc5[nH]ccc5c4)c3)CC2)=C(c2ccc(Cl)cc2)C1 [Venetoclax]	435	470	456	471	465	468		464	472	465	461
CC(=O)Nc1cccc(-n2c(=O)n(C3CC3)c(=O)c3c(Nc4ccc(I)cc4F)n(C)c(=O)c(C)c32)c1 [Trametinib]	172	281	396	214	394	428		380	331	> 500	418
O=C(/C=C\n1cnc(-c2cc(C(F)(F)F)cc(C(F)(F)F)c2)n1)NNc1cnccn1 [Selinexor]	360	378	345	319	387	443		415	349	489	395
COCCOc1cnc2ccn([C@H](C)c3nnc4c(F)cc(-c5cnn(C)c5)cn34)c(=O)c2c1 [AMG 337]	446	488	488	483	494	495	> 500				> 500
CS(=O)(=O)OCCCCOS(C)(=O)=O [Busulfan]	> 500	> 500	489	> 500	> 500	> 500	490				485
O=C1c2c(O)ccc(O)c2C(=O)c2c(NCCNCCO)ccc(NCCNCCO)c21 [Mitoxantrone]	294	285	274	222	257	319	340		208	405	313
CO[C@@H](C)Cn1c(=O)n(C)c2cnc3ccc(-c4cncc(C(C)(C)O)c4)cc3c21 [Samotolisib]	372	361	364	334	357	446		424	306	442	406
CN(C)C(=N)NC(=N)N [Metformin]	469	> 500	> 500	> 500	> 500	482	> 500				> 500
